For 17 compounds, Eff. % and LogP results are on record in patent US9090600B2, “Fungicidal 4-substituted-3-{phenyl[(heterocyclylmethoxy)imino]methyl}-1,2,4-oxadizol-5(4H)-one derivatives” (BAYER INTELLECTUAL PROPERTY GMBH, priority 2011, dated 2015).

The structures appear in SMILES notation. Where two headings read alike, the source gives them in different places. Marks after values point to notes of the source that are not given here.

One data set concerns Botrytis cinerea. The experiment in a line: In vivo test on Botrytis cinerea (grey mould). The note with it: gherkin plants, spray, 500 ppm, grading 4/5 days after contamination. Here is the method:
The active ingredients tested are prepared by homogenization in a mixture of acetone/Tween/DMSO, then diluted with water to obtain the desired active material
Gherkin plants (Vert petit de Paris variety), sown on a 50/50 peat soil-pozzolana substrate in starter cups and grown at 18-20° C., are treated at the cotyledon Z11 stage by spraying with the active ingredient prepared as described above.
Plants, used as controls, are treated with an aqueous solution not containing the active material. After 24 hours, the plants are contaminated by spraying them with an aqueous suspension of cryopreserved Botrytis cinerea spores (50.000 spores per ml) on upper surface of the leaves. The spores are suspended in a nutrient solution composed of: • 10 g/L of PDB; • 50 g/L of D-fructose; • 2 g/L of NH4NO3; • 1 g/L of KH2PO4.
The contaminated cucumber plants are settled for 4/5 days in a climatic room at 17° C. (day/night) and at 80% relative humidity.
Grading is carried out 4/5 days after the contamination, in comparison with the control plants.
(§1) Under these conditions, good (at least 70%) or total protection is observed at a dose of 500 ppm with the following compounds: […]

For data set [1] the following is noted: pH 2.7.
The subject of data set [2] is Phytophthora infestans. In kind it is in vivo. The note with it: tomato plants, spray, 500 ppm, grading 5 days after contamination.
The subject of a further data set is Alternaria brassicae. In words: In vivo test on Alternaria brassicae (leaf spot of crucifers). Particulars: radish plants, spray, 500 ppm, grading 6 to 7 days after contamination. Here is the method:
(§2) The active ingredients tested are prepared by homogenization in a mixture of acetone/tween/DMSO, then diluted with water to obtain the desired active material.
Radish plants (Pernot variety), sown on a 50/50 peat soil-pozzolana substrate in starter cups and grown at 18-20° C., are treated at the cotyledon stage by spraying with the active ingredient prepared as described above.
Plants, used as controls, are treated with the mixture of acetone/tween/water not containing the active material.
After 24 hours, the plants are contaminated by spraying them with an aqueous suspension of Alternaria brassicae spores (40,000 spores per cm^3). The spores are collected from a 12 to 13 days-old culture.
The contaminated radish plants are incubated for 6-7 days at about 18° C., under a humid atmosphere.
Grading is carried out 6 to 7 days after the contamination, in comparison with the control plants.
Under these conditions, good protection (at least 70%) is observed at a dose of 500 ppm with the following compounds: […]

Another data set has as its system Pyrenophora teres. The experiment in a line: In vivo test on Pyrenophora teres (barley net blotch). The note with it: barley plants, spray, 500 ppm, grading 12 days after contamination. Here is the method:
The active ingredients tested are prepared by homogenization in a mixture of acetone/Tween/DMSO, then diluted with water to obtain the desired active material concentration.
Barley plants (Plaisant variety), sown on a 50/50 peat soil-pozzolana substrate in starter cups and grown at 22° C. (12 h)/20° C. (12 h), are treated at the 1-leaf stage (10 cm tall) by spraying with the active ingredient prepared as described above.
(§3) Plants, used as controls, are treated with an aqueous solution not containing the active material.
After 24 hours, the plants are contaminated by spraying them with an aqueous suspension of Pyrenophora teres spores (12.000 spores per ml). The spores are collected from a 12-day-old culture.
The contaminated barley plants are incubated for 24 hours at about 20° C. and at 100% relative humidity, and then for 12 days at 80% relative humidity.
Grading is carried out 12 days after the contamination, in comparison with the control plants.
Under these conditions, good (at least 70%) is observed at a dose of 500 ppm with the following compounds: […]

The subject of another data set is Puccinia recondita. The experiment in a line: In vivo test on Puccinia recondita (brown rust). Particulars: wheat plants, spray, 500 ppm, grading 10 days after contamination. The method, boiled down: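 Wheat (Scipion) at the 1-leaf stage sprayed with compound suspension (acetone/tween/DMSO diluted in water), then inoculated 24 h later with Puccinia recondita spores at 100.000 spores per ml. Plants were held 24 h at 20 °C/100% RH, then 10 days at 20 °C/70% RH; protection graded 10 days post-inoculation versus untreated controls.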

In a further data set the test system is Uromyces appendiculatus. In words: In vivo test on Uromyces appendiculatus (brown rust of bean). Particulars: Saxa variety plants, spray, 500 ppm, grading 10 days after contamination. Here is the method:
as §2
Wheat plants (Saxa variety) sown on 50/50 peat soil-pozzolana substrate in starter cups and grown at 24° C., are treated at the 2-leaf stage (9 cm tall) by spraying with the aqueous suspension described above.
as §3
After 24 hours, the plants are contaminated by spraying the leaves with an aqueous suspension of Uromyces appendiculatus spores (150.000 spores per ml). The spores are collected from a 10-day-old contaminated […] and are suspended in water containing 2.5 ml/l of tween 80 10%. The contaminated […] are incubated for 24 hours at 20° C. and at 100% relative humidity, and then for 10 days at 20° C. and at 70% relative humidity. Grading is carried out 10 days after the contamination, in comparison with the control plants.
as §1

The test system of the next data set is Plasmopara viticola. The experiment in a line: Plasmopara test (grapevines)/preventive. In kind it is in vivo. The note with it: preventive spray, 10 ppm of active ingredient, evaluated 6 days after inoculation. The method, boiled down:
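Young grapevines sprayed preventively with compound formulated in acetone/dimethylacetamide with emulsifier, diluted in water, then inoculated with P. viticola spores after drying. Held 1 day at ~20 °C/100% RH, 4 days in greenhouse at ~21 °C/~90% RH, then misted for 1 day. Efficacy scored 6 days post-inoculation (0% = untreated control, 100% = no disease).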

The subject of a further data set is Pyricularia grisea. In kind it is in vivo. The note with it: rice plants, spray, 500 ppm, grading 6 days after contamination.
Data set [3] deals with Mycosphaerella graminicola. In words: In vivo test on Mycosphaerella graminicola (wheat leaf spot). Particulars: wheat plants, spray, 500 ppm, grading 21 to 28 days after contamination. Here is the method:
The active ingredients tested are prepared by homogenization in a mixture of acetone/tween/DMSO, then diluted with water to obtain the desired active material concentration.
Wheat plants (Scipion variety), sown on a 50/50 peat soil-pozzolana substrate in starter cups and grown at 22° C. (12 h)/20° C. (12 h), are treated at the 1-leaf stage (10 cm tall) by spraying with the aqueous suspension described above. Plants, used as controls, are treated with an aqueous solution not containing the active material.
After 24 hours, the plants are contaminated by spraying them with an aqueous suspension of cryopreserved Mycosphaerella graminicola spores (500.000 spores per ml). The contaminated wheat plants are incubated for 72 hours at 18° C. and at 100% relative humidity, and then for 21 to 28 days at 90% relative humidity.
Grading (% of efficacy) is carried out 21 to 28 days after the contamination, in comparison with the control plants.
as §1

Data set [4] relates to Phytophthora infestans. Type of data set: in vivo. The note with it: tomato, preventive spray, 100 ppm of active ingredient, evaluated 7 days after inoculation.
The test system of the next data set is Pythium aphanidermatum. The experiment in a line: Pythium test (cucumber)/seed treatment. Type of data set: in vivo. Particulars: 10 g/dt seed of active ingredient, emerged seedlings after 7 days. Here is the method: (§4) The test is performed under greenhouse conditions.
Cucumber seeds, treated with the active compound or compound combinations, solved in N-methyl-2-pyrrolidon and diluted with water to the desired dosages, were sown in 6*6 cm pots containing 4 cm of a 1:1 mix of steamed field soil and sand.
Perlite was incubated with mycelium fragments of Pythium aphanidermatum. 5 ml of infected perlite was scattered between the treated […] seeds. Seeds were then covered by the 1:1 mix of steamed field soil and sand. Pots were incubated in the greenhouse 7 days at 24° C. and 80% relative humidity. Assessment consisted of counting of emerged seedlings. 0% means an efficacy which corresponds to that of the control, while an efficacy of 100% means that all seedlings have emerged.

In a further data set the test system is Pythium irregulare. In words: Pythium test (corn)/seed treatment. Type of data set: in vivo. The note with it: 10 g/dt seed of active ingredient, emerged seedlings after 7 days at 10° C. then 14 days at 20° C. Here is the method: as §4
Corn seeds, treated with the active compound or compound combinations, solved in N-methyl-2-pyrrolidon and diluted with water to the desired dosages, were sown in 6*6 cm pots containing 4 cm of a 1:1 mix of steamed field soil and sand.
Perlite was incubated with mycelium fragments of Pythium irregulare. 5 ml of infected perlite was scattered between the treated cotton seeds. Seeds were than covered by the 1:1 mix of steamed field soil and sand. Pots were incubated in the greenhouse 7 days at 10° C. and 80% relative humidity and then 14 days at 20° C. and 80% relative humidity.
Assessment consisted of counting of emerged seedlings. 0% means an efficacy which corresponds to that of the control, while an efficacy of 100% means that all seedlings have emerged.

One may read the LogP as a log measure of how a compound divides between an organic and an aqueous phase. A low value points to a more hydrophilic compound. `COc1cccc(C(=NOCc2cccc(N)n2)c2noc(=O)[nH]2)c1` (mixture of isomers) [Example 354] gave an Eff. % with Botrytis cinerea of 71%. Moreover, the LogP in [1] is 1.29 [a].

As for `Cn1c(/C(=N\OCc2cccc(NC(=O)CCCCl)n2)c2ccccc2)noc1=O` [Example 34], the figures for the Eff. % with Phytophthora infestans [2] and in the data set with Alternaria brassicae were 99% and 100%, respectively. Moreover, the LogP in data set [1] was 3.27 [a].

With `Cn1c(/C(=N\OCc2cccc(NC(=O)C3CC3)n2)c2ccccc2)noc1=O` [Example 35], the results for the Eff. % in the data set with Pyrenophora teres and with Botrytis cinerea were 100% and 71%, respectively. Moreover, the LogP in [1] is 2.92 [a].

On to `CCCCCOC(=O)Nc1cccc(CO/N=C(/c2cccc(OC)c2)c2noc(=O)n2C)n1` [Example 36], for which the Eff. % in the data set with Pyrenophora teres was 71%; with Phytophthora infestans [2], 85%; with Puccinia recondita it was 75%; with Botrytis cinerea it was 86%. The log partition coefficient (LogP) in data set [1] was 4.46 [a].

For `C#CCC(C)(C)OC(=O)Nc1cccc(CO/N=C(/c2ccccc2)c2noc(=O)n2C)n1` [Example 39], the Eff. % in the data set with Phytophthora infestans [2] is recorded as 100%; in the data set on Uromyces appendiculatus, 81%; in the data set on Alternaria brassicae it was 83%; in the data set on Puccinia recondita it was 98%; in the data set with Plasmopara viticola, 97%. Also, the lipophilicity (LogP) in data set [1] was 3.94 [a].

For the compound `Cn1c(/C(=N\OCc2cccc(NC(=O)c3cccc(F)c3)n2)c2cccc(F)c2)noc1=O` [Example 42], the values for the Eff. % in the data set on Pyricularia grisea and with Phytophthora infestans [2] were 71% and 92%, respectively. Moreover, the log partition coefficient (LogP) in data set [1] was 3.79 [a].

`Cn1c(/C(=N\OCc2cccc(NC(=O)CCCC[n+]3ccccc3)n2)c2ccccc2)noc1=O.O=C[O-]` [Example 67]: the Eff. % with Phytophthora infestans [2] came out at 89%; in the data set with Puccinia recondita, 98%; in the data set with Botrytis cinerea it was 80%; in data set [3], 90%. Further, the LogP in data set [1] is 1.67 [a].

Turning to `C=CCOC(=O)Nc1cccc(CO/N=C(/c2ccccc2)c2noc(=O)n2C)n1` [Example 109], the Eff. % was 70% in the data set with Pyricularia grisea and 93% in the data set with Phytophthora infestans [2]. The LogP in [1] was 3.42 [a].

Take `CCCCCC(=O)Nc1cccc(CO/N=C(/c2ccccc2)c2noc(=O)n2C)n1` [Example 111]: the Eff. % with Phytophthora infestans [2] came out at 100%; in the data set on Uromyces appendiculatus, 72%; in the data set on Alternaria brassicae, 70%; in the data set with Plasmopara viticola, 100%; in [3], 100%; in the data set with Phytophthora infestans [4] it was 95%. Also, in [1], the log partition coefficient (LogP) was 3.89 [a].

As to `Cc1ccc(C(=O)Nc2nc(CO/N=C(/c3ccccc3)c3noc(=O)n3C)cs2)cc1` [Example 180], the Eff. % with Phytophthora infestans [2] is recorded as 98%; in the data set with Plasmopara viticola, 95%; with Botrytis cinerea it was 83%. In addition, the LogP in [1] was 3.76 [a].

On to `Cn1c(C(=NOCc2csc(NC(=O)c3ccc(Cl)cc3Cl)n2)c2ccccc2)noc1=O` [Example 262], for which the Eff. % with Phytophthora infestans [2] stood at 78%; in the data set on Alternaria brassicae it was 83%. The log partition coefficient (LogP) in data set [1] was 3.94 [a].

Take `Cn1c(/C(=N\OCc2cccc(NC(=O)COCc3ccccc3)n2)c2ccccc2)noc1=O` [Example 278]: the values for the Eff. % in the data set on Phytophthora infestans [2] and in the data set with Botrytis cinerea were 100% and 78%, respectively. Moreover, the log partition coefficient (LogP) in [1] was 3.87 [a].

`CCCC(C)OC(=O)Nc1cccc(CO/N=C(/c2ccccc2)c2noc(=O)n2C)n1` (centres unmarked) [Example 282]: the Eff. % is reported as 100% in the data set on Pythium aphanidermatum; 98% with Phytophthora infestans [2]; 90% in the data set on Pythium irregulare; 96% in the data set with Plasmopara viticola; 92% in the data set on Phytophthora infestans [4]. Moreover, in [1], the LogP is 4.36 [a].

`Cc1ccc(/C(=N/OCc2csc(N)n2)c2noc(=O)[nH]2)cc1` [Example 308]: the Eff. % with Phytophthora infestans [2] stood at 89%; in the data set on Alternaria brassicae, 90%; in the data set on Puccinia recondita, 94%; in [3], 100%. Besides, the LogP in data set [1] is 1.84 [a].

As for `Cn1c(/C(=N\OCc2cccc(NC(=O)c3ccc(Cl)cc3Cl)n2)c2ccccc2)noc1=O` [Example 332], the Eff. % in the data set on Phytophthora infestans [2] was 85%; with Botrytis cinerea, 71%. Besides, in data set [1], the LogP is 4.14 [a].

On to `Cn1c(/C(=N\OCc2cccc(NC(=O)c3ccc(F)cc3)n2)c2ccccc2)noc1=O` [Example 364], for which the values for the Eff. % in the data set with Phytophthora infestans [2], in the data set with Alternaria brassicae and with Plasmopara viticola were 98%, 92% and 100%, respectively. Further, in [1], the lipophilicity (LogP) is 3.62 [a].

Take `Cn1c(/C(=N\OCc2csc(NC(=O)c3ccc(Br)cc3)n2)c2ccccc2)noc1=O` [Example 373]: the Eff. % was 97% in the data set on Phytophthora infestans [2] and 85% with Botrytis cinerea. The lipophilicity (LogP) in data set [1] is 4.01 [a].
